According to ChEMBL document CHEMBL5046268, “Synthesis, Biological Evaluation, and Molecular Modeling Studies of 3,4-Diarylpyrazoline Series of Compounds as Potent, Nonbrain Penetrant Antagonists of Cannabinoid-1 (CB1R) Receptor with Reduced Lipophilicity” (J Med Chem, 2022):
pIC50, pKi: −log10 of the molar value. Values belong to the molecule of their own block, whether it stands above or below them. Activity calls are given as the source filed them. The calls are words filed in the database; no cut-off is given here.

Columns and labels:
[1] = target: T1, Cannabinoid receptor 1 (Homo sapiens, UniProt P21554); test: Displacement of [3H]- CP55940 from human CB1R expressed in CHO-K1 cells membrane by Cheng-Prusoff equation analysis; assay type: cell membranes, Cell membrane; settings: for pKi: read-out: Ki
T1 sequence (P21554 whole entry): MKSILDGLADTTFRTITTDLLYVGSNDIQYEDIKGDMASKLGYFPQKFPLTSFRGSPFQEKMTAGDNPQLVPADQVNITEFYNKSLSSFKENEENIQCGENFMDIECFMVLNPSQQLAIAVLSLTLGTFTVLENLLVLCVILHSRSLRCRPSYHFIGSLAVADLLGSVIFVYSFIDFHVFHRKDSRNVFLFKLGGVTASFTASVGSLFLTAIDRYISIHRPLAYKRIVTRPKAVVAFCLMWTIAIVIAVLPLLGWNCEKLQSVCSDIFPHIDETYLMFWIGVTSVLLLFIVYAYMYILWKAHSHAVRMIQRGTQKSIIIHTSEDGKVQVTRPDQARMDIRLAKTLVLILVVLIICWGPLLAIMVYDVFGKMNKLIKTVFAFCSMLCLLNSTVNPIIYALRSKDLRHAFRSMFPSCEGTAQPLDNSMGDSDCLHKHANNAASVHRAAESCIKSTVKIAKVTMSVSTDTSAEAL

[2] = target: Cannabinoid receptor 2 (Homo sapiens, UniProt P34972); test: Displacement of [3H]- CP55940 from human CB2R expressed in CHO-K1 cells membrane by Cheng-Prusoff equation analysis; assay type: cell membranes, Cell membrane; settings: for pKi: read-out: Ki
Chain of Cannabinoid receptor 2 (P34972 whole entry): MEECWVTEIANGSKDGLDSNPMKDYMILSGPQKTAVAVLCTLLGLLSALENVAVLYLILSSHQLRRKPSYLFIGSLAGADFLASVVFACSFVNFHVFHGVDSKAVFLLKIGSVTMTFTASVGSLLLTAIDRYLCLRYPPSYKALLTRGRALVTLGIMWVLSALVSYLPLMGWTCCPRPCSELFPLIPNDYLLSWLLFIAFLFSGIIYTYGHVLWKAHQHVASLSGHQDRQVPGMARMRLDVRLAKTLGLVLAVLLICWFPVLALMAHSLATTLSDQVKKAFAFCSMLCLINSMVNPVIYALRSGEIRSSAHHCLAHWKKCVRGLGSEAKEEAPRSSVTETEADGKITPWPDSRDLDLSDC

[3] = target: T1, Cannabinoid receptor 1; test: Antagonist activity at human CB1R expressed in CHO-K1 cell membranes assessed as stimulation of [35S]-GTPgammaS binding by liquid scintillation counting method; assay type: functional, Cell membrane; settings: for pIC50: read-out: IC50; for IC50: cho-k1
[4] = target: Nitric oxide synthase, inducible (Homo sapiens) (UniProt P35228); test: Inhibition of recombinant iNOS (unknown origin) assessed as reduction in L-[3H]-citrulline level using L-[3H]-arginine as substrate at 10 uM by Enzymatic NOS activity assay
Chain of Nitric oxide synthase, inducible (Homo sapiens) (P35228 whole entry): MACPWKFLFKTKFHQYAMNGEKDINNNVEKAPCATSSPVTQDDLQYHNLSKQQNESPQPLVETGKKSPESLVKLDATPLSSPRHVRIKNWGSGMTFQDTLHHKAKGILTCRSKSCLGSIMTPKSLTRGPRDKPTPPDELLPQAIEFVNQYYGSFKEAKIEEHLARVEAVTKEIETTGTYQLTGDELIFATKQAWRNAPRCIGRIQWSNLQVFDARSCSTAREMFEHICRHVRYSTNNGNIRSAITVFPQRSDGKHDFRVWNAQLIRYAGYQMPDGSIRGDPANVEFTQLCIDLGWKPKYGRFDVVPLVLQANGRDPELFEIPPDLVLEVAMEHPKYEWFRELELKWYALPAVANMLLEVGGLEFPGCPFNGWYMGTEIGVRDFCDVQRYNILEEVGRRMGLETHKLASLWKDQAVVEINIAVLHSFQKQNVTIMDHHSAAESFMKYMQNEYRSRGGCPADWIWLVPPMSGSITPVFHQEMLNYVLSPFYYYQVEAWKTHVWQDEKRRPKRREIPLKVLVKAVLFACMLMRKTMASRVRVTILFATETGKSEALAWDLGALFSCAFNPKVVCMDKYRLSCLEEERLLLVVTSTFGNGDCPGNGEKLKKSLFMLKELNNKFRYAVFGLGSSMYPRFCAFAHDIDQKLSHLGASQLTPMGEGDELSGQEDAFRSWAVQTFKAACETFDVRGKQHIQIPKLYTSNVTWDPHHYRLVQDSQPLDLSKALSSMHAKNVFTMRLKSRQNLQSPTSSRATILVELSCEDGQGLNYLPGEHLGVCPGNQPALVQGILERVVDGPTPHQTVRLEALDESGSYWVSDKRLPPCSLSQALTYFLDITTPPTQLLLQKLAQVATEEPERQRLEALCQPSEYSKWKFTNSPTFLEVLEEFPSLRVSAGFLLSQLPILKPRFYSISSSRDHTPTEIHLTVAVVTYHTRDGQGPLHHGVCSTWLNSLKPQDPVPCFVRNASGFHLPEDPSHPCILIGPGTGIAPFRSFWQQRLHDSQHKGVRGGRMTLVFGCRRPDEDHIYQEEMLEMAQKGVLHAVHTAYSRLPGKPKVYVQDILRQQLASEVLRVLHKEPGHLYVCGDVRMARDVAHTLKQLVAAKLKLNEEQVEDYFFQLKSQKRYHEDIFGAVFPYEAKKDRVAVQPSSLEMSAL

[5] = Drug distribution in C57BL/6J mouse plasma at 10 mg/kg, ip incubated for 1 hrs by LC/MS/MS analysis; assay type: ADME, organism-based; settings: in vivo
[6] = Drug distribution in C57BL/6J mouse liver at 10 mg/kg, ip incubated for 1 hrs by LC/MS/MS analysis; assay type: ADME, organism-based; settings: in vivo
[7] = Ratio of drug level in C57BL/6J mouse brain to plasma at 10 mg/kg, ip incubated for 1 hrs by LC/MS/MS analysis; assay type: ADME, organism-based; settings: read-out: BPR
[8] = Drug distribution in C57BL/6J mouse brain at 10 mg/kg, ip incubated for 1 hrs by LC/MS/MS analysis; assay type: ADME, organism-based; settings: in vivo

SMILES: N/C(=N\C(=N\S(=O)(=O)N1CCCC1)N1CC(c2ccccc2)C(c2ccc(Cl)cc2)=N1)c1ccc(Cl)cc1 (centres undefined)
pKi [1]: 7.12
pKi [2]: < 6.00
pIC50 [3]: 6.37
inhibition [4]: Active

SMILES: CCN(CC)S(=O)(=O)/N=C(/N=C(\N)c1ccc(Cl)cc1)N1CC(c2ccccc2)C(c2ccc(Cl)cc2)=N1 (centres undefined)
pKi [1]: 7.97
pKi [2]: 7.15
pIC50 [3]: 7.07
inhibition [4]: Active

SMILES: C/C(N)=N/C(=N/S(=O)(=O)N1CCOCC1)N1CC(c2ccccc2)C(c2ccc(Cl)cc2)=N1 (centres undefined)
pKi [1]: 7.51
pKi [2]: < 6.00
pIC50 [3]: 7.20

SMILES: CS/C(N)=N/C(=N/S(=O)(=O)N1CCC(C(F)(F)F)CC1)N1CC(c2ccccc2)C(c2ccc(Cl)cc2)=N1 (centres undefined)
pKi [1]: 8.62
pKi [2]: < 7.00
pIC50 [3]: 8.44
Drug uptake [5]: Active
Drug uptake [6]: Active
Kp at 1 h [7]: 0.036
Drug uptake [8]: Active

SMILES: N/C(=N\C(=N\S(=O)(=O)N1CCC(F)(F)CC1)N1CC(c2ccccc2)C(c2ccc(Cl)cc2)=N1)c1ccc(F)cc1 (centres undefined)
pKi [1]: 8.48
pKi [2]: 7.55
pIC50 [3]: 8.36

SMILES: C/C(N)=N/C(=N/S(=O)(=O)N1CCCC1)N1CC(c2ccccc2)C(c2ccc(Cl)cc2)=N1 (centres undefined)
pKi [1]: 8.13
pKi [2]: < 6.00
pIC50 [3]: 6.86
inhibition [4]: Active

SMILES: CC(C)(C)/C(N)=N/C(=N/S(=O)(=O)N1CCOCC1)N1CC(c2ccccc2)C(c2ccc(Cl)cc2)=N1 (centres undefined)
pKi [1]: < 7.00
pKi [2]: < 6.00
pIC50 [3]: 7.47

SMILES: CS/C(N)=N/C(=N/S(=O)(=O)N1CCCC1)N1CC(c2ccccc2)C(c2ccc(Cl)cc2)=N1 (centres undefined)
pKi [1]: 7.64
pKi [2]: < 6.00
pIC50 [3]: 6.34
inhibition [4]: Active

SMILES: C/C(N)=N/C(=N/S(=O)(=O)N1CCC(C(F)(F)F)CC1)N1CC(c2ccccc2)C(c2ccc(Cl)cc2)=N1 (centres undefined)
pKi [1]: 8.41
pKi [2]: < 7.00
pIC50 [3]: 6.56

SMILES: CS/C(N)=N\C(=N\S(=O)(=O)N1CCCCC1)N1CC(c2ccccc2)C(c2ccc(Cl)cc2)=N1 (centres undefined)
pKi [1]: 7.82
pKi [2]: < 7.00
pIC50 [3]: 6.78

SMILES: CCN(CC)S(=O)(=O)/N=C(/N=C(\N)c1ccc(F)cc1)N1CC(c2ccccc2)C(c2ccc(Cl)cc2)=N1 (centres undefined)
pKi [1]: 8.26
pKi [2]: < 6.00
pIC50 [3]: 6.97
inhibition [4]: Active

SMILES: C/C(N)=N\C(=N\S(=O)(=O)N1CCC(F)(F)CC1)N1CC(c2ccccc2)C(c2ccc(Cl)cc2)=N1 (centres undefined)
pKi [1]: 8.47
pKi [2]: < 7.00
pIC50 [3]: 7.82

SMILES: C/C(N)=N\C(=N\S(=O)(=O)N1CCCCC1)N1CC(c2ccccc2)C(c2ccc(Cl)cc2)=N1 (centres undefined)
pKi [1]: 8.52
pKi [2]: < 7.00
pIC50 [3]: 7.24
Drug uptake [5]: Active
Drug uptake [6]: Active
Kp at 1 h [7]: 0.04
Drug uptake [8]: Active

SMILES: CCN(CC)S(=O)(=O)/N=C(/N=C(/C)N)N1C[C@@H](c2ccccc2)C(c2ccc(Cl)cc2)=N1
Ki ([1]; cho-k1): Not Active
Ki ([2]; cho-k1): Not Active
IC50 [3]: Not Active

SMILES: CCN(CC)S(=O)(=O)/N=C(/N=C(\N)SC)N1CC(c2ccccc2)C(c2ccc(Cl)cc2)=N1 (centres undefined)
pKi [1]: 7.89
pKi [2]: 7.15
pIC50 [3]: 6.41
inhibition [4]: Active

Second part, the molecule after the results:

pKi [1]: 7.85
pKi [2]: < 7.00
pIC50 [3]: 6.90
SMILES: CS/C(N)=N\C(=N\S(=O)(=O)N1CCC(F)(F)CC1)N1CC(c2ccccc2)C(c2ccc(Cl)cc2)=N1 (centres undefined)

pKi [1]: < 6.00
pKi [2]: < 6.00
pIC50 [3]: 7.21
inhibition [4]: Active
SMILES: CC(C)(C)/C(N)=N/C(=N/S(=O)(=O)N1CCCC1)N1CC(c2ccccc2)C(c2ccc(Cl)cc2)=N1 (centres undefined)

pKi [1]: 8.11
pKi [2]: 7.77
pIC50 [3]: 8.22
SMILES: N/C(=N/C(=N/S(=O)(=O)N1CCCCC1)N1CC(c2ccccc2)C(c2ccc(Cl)cc2)=N1)c1ccc(Cl)cc1 (centres undefined)

pKi [1]: < 6.00
pKi [2]: < 6.00
IC50 [3]: Not Active
SMILES: CS/C(N)=N/C(=N/S(=O)(=O)N1CCC(C(F)(F)F)CC1)N1C[C@@H](c2ccccc2)C(c2ccc(Cl)cc2)=N1

pKi [1]: 7.39
pKi [2]: < 6.00
pIC50 [3]: 7.04
SMILES: CS/C(N)=N/C(=N/S(=O)(=O)N1CCOCC1)N1CC(c2ccccc2)C(c2ccc(Cl)cc2)=N1 (centres undefined)

pKi [1]: 6.21
pKi [2]: < 6.00
IC50 [3]: Not Active
SMILES: C/C(N)=N\C(=N\S(=O)(=O)N1CCCCC1)N1C[C@@H](c2ccccc2)C(c2ccc(Cl)cc2)=N1

pKi [1]: 8.19
pKi [2]: 7.44
pIC50 [3]: 8.40
SMILES: N/C(=N/C(=N/S(=O)(=O)N1CCCCC1)N1CC(c2ccccc2)C(c2ccc(Cl)cc2)=N1)c1ccc(F)cc1 (centres undefined)

pKi [1]: 7.40
pKi [2]: < 6.00
pIC50 [3]: 7.72
SMILES: N/C(=N\C(=N\S(=O)(=O)N1CCOCC1)N1CC(c2ccccc2)C(c2ccc(Cl)cc2)=N1)c1ccc(F)cc1 (centres undefined)

pKi [1]: 8.26
pKi [2]: 7.70
pIC50 [3]: 8.27
SMILES: N/C(=N\C(=N\S(=O)(=O)N1CCC(C(F)(F)F)CC1)N1CC(c2ccccc2)C(c2ccc(Cl)cc2)=N1)c1ccc(Cl)cc1 (centres undefined)

pKi [1]: 7.70
pKi [2]: 7.85
pIC50 [3]: 8.56
SMILES: N/C(=N\C(=N\S(=O)(=O)N1CCC(C(F)(F)F)CC1)N1CC(c2ccccc2)C(c2ccc(Cl)cc2)=N1)c1ccc(F)cc1 (centres undefined)

pKi [1]: 7.98
pKi [2]: < 6.00
pIC50 [3]: 6.94
inhibition [4]: Active
SMILES: N/C(=N\C(=N\S(=O)(=O)N1CCCC1)N1CC(c2ccccc2)C(c2ccc(Cl)cc2)=N1)c1ccc(F)cc1 (centres undefined)

pKi [1]: 8.00
pKi [2]: < 6.00
pIC50 [3]: 6.43
inhibition [4]: Active
SMILES: CCN(CC)S(=O)(=O)/N=C(/N=C(\N)C(C)(C)C)N1CC(c2ccccc2)C(c2ccc(Cl)cc2)=N1 (centres undefined)

pKi [1]: 7.64
pKi [2]: < 6.00
pIC50 [3]: 6.89
SMILES: CC(C)(C)/C(N)=N\C(=N\S(=O)(=O)N1CCCCC1)N1CC(c2ccccc2)C(c2ccc(Cl)cc2)=N1 (centres undefined)

pKi [1]: 7.72
pKi [2]: < 6.00
pIC50 [3]: 7.60
SMILES: N/C(=N\C(=N\S(=O)(=O)N1CCOCC1)N1CC(c2ccccc2)C(c2ccc(Cl)cc2)=N1)c1ccc(Cl)cc1 (centres undefined)
